Data from patent US20160257697A1, “THIOPHENE-SUBSTITUTED TETRACYCLIC COMPOUNDS AND METHODS OFUSE THEREOF FOR THE TREATMENT OF VIRAL DISEASES” (priority 2013, published 2016).
Like-named read-outs stand apart in the source and are kept apart here.

What was measured:
Experiment in all cases: microbe, parasite or virus in culture
Assay type in all cases: cell-based, Hepatitis C virus (HCV)
Details in all cases: Replicon Assay A
[1] = system: HCV replicon 2B
How it was run: (§1)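 Replicon cells incubated with compound for 3 days in medium with 5% FBS and 0.5% DMSO final. Replicon RNA measured in lysates by multiplex real-time RT-PCR (Neo set) against cyclophilin control, quantified from standard curves of Ct versus log ng replicon total RNA.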

[2] = system: HCV replicon 1AY93H
How it was run: as §1

[3] = system: HCV replicon 1A
How it was run: as §1

[4] = read-out: 1A Y93H IC50, replicon 1AY93H
[5] = Hepatitis C virus, read-out: 1A Y93H IC50 (nM), replicon 1AY93H
[6] = read-out: 2B IC50, HCV replicon 2B
[7] = read-out: 1A Y93H IC50, HCV replicon 1A Y93H
[8] = Hepatitis C virus, read-out: 2B IC50, HCV replicon 2B
[9] = Hepatitis C virus, read-out: 1A Y93H IC50, HCV replicon 1A Y93H
[10] = Hepatitis C virus, HCV replicon 1A

Row | Structure (SMILES) | IC50 ([1]; read-out: 2B IC50, replicon 2B) [nM] | IC50 [2, 4] [nM] | IC50 ([3]; replicon 1A) [pM] | also measured
1 | CCc1ccc(C2Oc3cc(-c4cnc([C@@H]5CCCN5C(=O)[C@@H](NC(=O)OC)C(C)C)[nH]4)cc(F)c3-c3cc4cc(-c5cnc([C@@H]6C[C@H]7C[C@H]7N6C(=O)C(NC(=O)OC)C6CCOC(C)(C)C6)[nH]5)ccc4n32)s1 (single isomer, unassigned) [Compound 196] | 0.55 | 0.062 | 1.8 | –
2 | COC(=O)NC(C(=O)N1[C@@H]2C[C@@H]2C[C@H]1c1ncc(-c2ccc3c(c2)cc2n3C(c3ccc(C4CC4)s3)Oc3cc(-c4cnc([C@@H]5CCCN5C(=O)[C@@H](NC(=O)OC)C(C)C)[nH]4)cc(F)c3-2)[nH]1)C1CCOC(C)(C)C1 (single isomer, unassigned) [Compound 278] | 0.3 | 0.161 | 1.8 | –
3 | COC(=O)N[C@H](C(=O)N1CCC[C@H]1c1ncc(-c2cc(F)c3c(c2)OC(c2ccc(C(C)C(F)(F)F)s2)n2c-3cc3cc(-c4cnc([C@@H]5CCCN5C(=O)[C@@H](NC(=O)OC)C(C)C)[nH]4)ccc32)[nH]1)C(C)C (single isomer, unassigned) [Compound 132] | 6 | – | – | IC50 [2, 5]: 4.93 nM; IC50 ([3]; Hepatitis C virus, replicon 1A): 3.2 pM
4 | COC(=O)N[C@H](C(=O)N1CCC[C@H]1c1ncc(-c2cc(F)c3c(c2)OC(c2ccc(C(F)(F)F)s2)n2c-3cc3cc(-c4cnc([C@@H]5CCCN5C(=O)[C@@H](NC(=O)OC)C5CCOCC5)[nH]4)ccc32)[nH]1)C(C)C (single isomer, unassigned) [Compound 655] | – | – | – | IC50 [1, 6]: 0.24 nM; IC50 [2, 7]: 0.278 nM; IC50 ([3]; HCV replicon 1A): 1.59 pM
5 | CCc1ccc(C2Oc3cc(-c4cnc([C@@H]5CCCN5C(=O)[C@@H](NC(=O)OC)C(C)C)[nH]4)cc(F)c3-c3cc4cc(-c5cnc([C@@H]6CCCN6C(=O)C(NC(=O)OC)C6CCOC(C)(C)C6)[nH]5)ccc4n32)s1 (single isomer, unassigned) [Compound 148] | 13.2 | 10.2 | 91.9 | –
6 | COC(=O)N[C@H](C(=O)N1CCC[C@H]1c1ncc(-c2cc(F)c3c(c2)OC(c2scc4c2OCCO4)n2c-3cc3cc(-c4cnc([C@@H]5CCCN5C(=O)[C@@H](NC(=O)OC)C(C)C)[nH]4)ccc32)[nH]1)C(C)C (single isomer, unassigned) [Compound 524] | – | – | – | IC50 [1, 6]: 4.64 nM; IC50 [2, 7]: 14.5 nM; IC50 ([3]; HCV replicon 1A): 7.66 pM
7 | COC(=O)N[C@H](C(=O)N1CCC[C@H]1c1ncc(-c2ccc3c(c2)OC(c2ccc(C4CC4)s2)n2c-3c(C)c3cc(-c4cnc([C@@H]5CCCN5C(=O)[C@@H](NC(=O)OC)C(C)C)[nH]4)ccc32)[nH]1)C(C)C (single isomer, unassigned) [Compound 21] | 0.26 | 0.22 | – | IC50 ([3]; Hepatitis C virus, replicon 1A): 1.9 pM
8 | COC(=O)NC(C(=O)N1CCC[C@H]1c1ncc(-c2cc(F)c3c(c2)OC(c2ccc(C4CC4)s2)n2c-3cc3cc(-c4cnc([C@@H]5CCCN5C(=O)[C@@H](NC(=O)OC)C(C)C)[nH]4)ccc32)[nH]1)C1CCOC(C)(C)C1 (single isomer, unassigned) [Compound 212] | 8.59 | 6.07 | 68.1 | –
9 | COC(=O)NC(C(=O)N1CCC[C@H]1c1ncc(-c2ccc3c(c2)cc2n3C(c3cc(C)c(C)s3)Oc3cc(-c4cnc([C@@H]5CCCN5C(=O)[C@@H](NC(=O)OC)C5CCOCC5)[nH]4)cc(F)c3-2)[nH]1)C(C)(C)F (single isomer, unassigned) [Compound 129] | 1.17 | 0.8 | 1 | –
10 | COC(=O)NC(C(=O)N1CCC[C@H]1c1ncc(-c2ccc3c(c2)cc2n3C(c3cc4nccnc4s3)Oc3cc(-c4cnc([C@@H]5CCCN5C(=O)[C@@H](NC(=O)OC)C(C)C)[nH]4)cc(F)c3-2)[nH]1)C1C[C@@H](C)O[C@@H](C)C1 (single isomer, unassigned) [Compound 371] | 0.0627 | 0.553 | – | IC50 ([3]; Hepatitis C virus, replicon 1A): 4.2 pM
11 | COC(=O)N[C@H](C(=O)N1C[C@H](F)C[C@H]1c1ncc(-c2ccc3c(c2)OC(c2ccc(C)s2)n2c-3cc3cc(-c4cnc([C@@H]5C[C@H]6C[C@H]6N5C(=O)[C@@H](NC(=O)OC)C(C)C)[nH]4)ccc32)[nH]1)C(C)C (single isomer, unassigned) [Compound 708] | – | – | – | IC50 [1, 6]: 3.05 nM; IC50 [2, 7]: 0.042 nM; IC50 ([3]; HCV replicon 1A): 18 pM
12 | COC(=O)NC(C(=O)N1CCC[C@H]1c1ncc(-c2ccc3c(c2)cc2n3C(c3ccc(C(C)C)s3)Oc3cc(-c4cnc([C@@H]5CCCN5C(=O)[C@@H](NC(=O)OC)C(C)C)[nH]4)cc(F)c3-2)[nH]1)C1CCOC(C)(C)C1 (single isomer, unassigned) [Compound 239] | 9.48 | 6.6 | 98.2 | –
13 | COC(=O)N[C@H](C(=O)N1CCC[C@H]1c1nc(-c2ccc3c(c2)OC(c2cc4sccc4s2)n2c-3cc3cc(-c4c[nH]c([C@@H]5C[C@H]6C[C@H]6N5C(=O)[C@@H](NC(=O)OC)C5CCOCC5)n4)ccc32)c[nH]1)C(C)C (mixture of isomers) [Compound 726] | – | – | – | IC50 [1, 8]: 0.16 nM; IC50 [2, 9]: 0.047 nM; IC50 [3, 10]: 6.3 pM
14 | COC(=O)N[C@H](C(=O)N1CCC[C@H]1c1ncc(-c2cc(F)c3c(c2)OC(c2ccc(C#CC4CC4)s2)n2c-3cc3cc(-c4cnc([C@@H]5CCCN5C(=O)[C@@H](NC(=O)OC)C(C)C)[nH]4)ccc32)[nH]1)C(C)C (single isomer, unassigned) [Compound 85] | 1 | 0.41 | – | IC50 ([3]; Hepatitis C virus, replicon 1A): 1.1 pM
15 | COC(=O)NC(C(=O)N1CCC[C@H]1c1ncc(-c2ccc3c(c2)cc2n3C(c3ccc(C(C)C)s3)Oc3cc(-c4cnc([C@@H]5CCCN5C(=O)[C@@H](NC(=O)OC)C(C)C)[nH]4)cc(F)c3-2)[nH]1)C1CCOC(C)(C)C1 (single isomer, unassigned) [Compound 243] | 6.81 | 0.87 | 1.5 | –
16 | COC(=O)N[C@H](C(=O)N1CCC[C@H]1c1ncc(-c2ccc3c(c2)OC(c2cc4ccccc4s2)n2c-3cc3cc(-c4cnc([C@@H]5C[C@@H](F)CN5C(=O)[C@@H](NC(=O)OC)C5CCOCC5)[nH]4)ccc32)[nH]1)C(C)C (single isomer, unassigned) [Compound 628] | – | – | – | IC50 [1, 6]: 0.922 nM; IC50 [2, 7]: 0.357 nM; IC50 ([3]; HCV replicon 1A): 3.14 pM
17 | COC(=O)N[C@H](C(=O)N1CCC[C@H]1c1ncc(-c2cc(F)c3c(c2)OC(c2scc4c2OCCO4)n2c-3cc3cc(-c4cnc([C@@H]5CCCN5C(=O)[C@@H](NC(=O)OC)C(C)C)[nH]4)ccc32)[nH]1)C(C)C (single isomer, unassigned) [Compound 523] | – | – | – | IC50 [1, 6]: 12.4 nM; IC50 [2, 9]: 11.7 nM; IC50 ([3]; HCV replicon 1A): 3.2 pM
18 | COC(=O)N[C@H](C(=O)N1CCC[C@H]1c1ncc(-c2cc(F)c3c(c2)OC(c2ccc(OC)s2)n2c-3cc3cc(-c4cnc([C@@H]5CCCN5C(=O)[C@@H](NC(=O)OC)C(C)C)[nH]4)ccc32)[nH]1)C(C)C (single isomer, unassigned) [Compound 19] | 1.88 | 0.5 | – | IC50 ([3]; Hepatitis C virus, replicon 1A): 1.6 pM
19 | COC(=O)N[C@H](C(=O)N1CCC[C@H]1c1ncc(-c2cc(F)c3c(c2)OC(c2ccc(C(C)CF)s2)n2c-3cc3cc(-c4cnc([C@@H]5CCCN5C(=O)[C@@H](NC(=O)OC)C(C)C)[nH]4)ccc32)[nH]1)C(C)C (single isomer, unassigned) [Compound 332] | 1.39 | – | – | IC50 [2, 5]: 0.765 nM; IC50 ([3]; Hepatitis C virus, replicon 1A): 1.1 pM
20 | COC(=O)N[C@H](C(=O)N1CCC[C@H]1c1ncc(-c2cc(F)c3c(c2)OC(c2scc4c2OCCO4)n2c-3cc3cc(-c4cnc([C@@H]5C[C@H](F)CN5C(=O)[C@@H](NC(=O)OC)C(C)C)[nH]4)ccc32)[nH]1)C(C)C (single isomer, unassigned) [Compound 526] | – | – | – | IC50 [1, 8]: 33.3 nM; IC50 [2, 9]: 4.79 nM; IC50 [3, 10]: 7.76 pM
21 | COC(=O)N[C@H](C(=O)N1CCC[C@H]1c1ncc(-c2cc(F)c3c(c2)OC(c2cc4c(s2)CCC(C)(C)O4)n2c-3cc3cc(-c4cnc([C@@H]5CCCN5C(=O)[C@@H](NC(=O)OC)C(C)C)[nH]4)ccc32)[nH]1)C(C)C (single isomer, unassigned) [Compound 398] | 0.494 | 0.955 | 1.5 | –
22 | COC(=O)NC(C(=O)N1CCC[C@H]1c1ncc(-c2ccc3c(c2)cc2n3C(c3ccc(C(C)C)s3)Oc3cc(-c4cnc([C@@H]5CCCN5C(=O)[C@@H](NC(=O)OC)C(C)C)[nH]4)cc(F)c3-2)[nH]1)C1CCOC(C)(C)C1 (single isomer, unassigned) [Compound 237] | 0.4 | 0.21 | 1.2 | –
23 | CCc1ccc(C2Oc3cc(-c4cnc([C@@H]5CCCN5C(=O)[C@@H](NC(=O)OC)C(C)C)[nH]4)cc(F)c3-c3cc4cc(-c5cnc([C@@H]6CCCN6C(=O)C(NC(=O)OC)C6CCOC(C)(C)C6)[nH]5)ccc4n32)s1 (single isomer, unassigned) [Compound 146] | 0.38 | 0.57 | 1.2 | –
